Reference: article PMC5028181 (PLoS ONE, 2016)

Test system: T1, BmObc1 (oxalate biosynthetic component 1; His-BmObc1)
T1 construct: gene obc1
Assay type: biochemical, Burkholderia mallei

SMILES	Km [µM]
CC(=O)SCCNC(=O)CCNC(=O)[C@H](O)C(C)(C)COP(=O)(O)OP(=O)(O)OC[C@H]1O[C@@H](n2cnc3c(N)ncnc32)[C@H](O)[C@@H]1OP(=O)(O)O [acetyl-CoA]	26.8 ± 2.3
O=C(O)CC(=O)C(=O)O [oxaloacetate]	94.3 ± 9.2
CCC(=O)SCCNC(=O)CCNC(=O)[C@H](O)C(C)(C)COP(=O)(O)OP(=O)(O)OC[C@H]1O[C@@H](n2cnc3c(N)ncnc32)[C@H](O)[C@@H]1OP(=O)(O)O [propionyl-CoA]	104 ± 12.7
